Here are results for 17 compounds from patent US20050032873A1, “3-Amino chroman and 2-amino tetralin derivatives” (Wyeth, priority 2003, published 2005).

Experiment [1] deals with T1, serotonin transporter (Rattus norvegicus, UniProt P31652).
T1 construct: displace ^3H-paroxetine from male rat cortical membranes; from tissue; host or cells: male rat cortical membranes
In words: 5-HT transporter affinity: displacement of 3H-paroxetine from male rat cortical membranes. The note with it: displacement of 3H-paroxetine; male rat cortical membranes; read-out: 5-HT Transporter Affinity Ki. The format is binding.

For experiment [2], the target named is T2, 5-HT1A receptor (Homo sapiens, UniProt P08908).
T2 sequence (P08908 1-422): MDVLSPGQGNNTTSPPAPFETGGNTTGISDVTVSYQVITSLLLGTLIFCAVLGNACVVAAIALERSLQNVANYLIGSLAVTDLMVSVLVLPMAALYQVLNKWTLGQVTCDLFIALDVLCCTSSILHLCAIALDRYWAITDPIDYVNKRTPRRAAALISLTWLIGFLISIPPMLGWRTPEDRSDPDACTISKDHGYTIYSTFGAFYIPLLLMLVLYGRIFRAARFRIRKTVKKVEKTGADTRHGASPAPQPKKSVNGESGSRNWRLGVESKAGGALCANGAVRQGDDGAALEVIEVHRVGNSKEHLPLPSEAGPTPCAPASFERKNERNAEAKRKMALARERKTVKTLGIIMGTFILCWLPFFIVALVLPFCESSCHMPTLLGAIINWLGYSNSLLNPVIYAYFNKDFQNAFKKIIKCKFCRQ
In words: cAMP accumulation assay, 5-HT1A function. The format is cell-based. The note with it: for EC50: cells marked EC50 (agonist); for Emax / 5-HT1A Function cAMP (Emax): in brackets after EC50 or IC50; for Emax: read-out: 5-HT1A Function cAMP (Emax); for IC50: cells marked IC50 (antagonist), read-out: 5-HT1A Function cAMP IC50.

The target of experiment [3] is T2, 5-HT1A receptor. In words: 5-HT1A receptor affinity: displacement of [3H] 8-OH-DPAT. The experiment is classed as binding. Set-up: expressed in transfected cells. As to conditions: displacement of [3H] 8-OH-DPAT; CHO cells stably transfected with human 5-HT1A receptors; read-out: 5-HT1A Receptor Affinity Ki.
Experiment [4] deals with T3, cloned human 5-HT1A receptors (Homo sapiens, UniProt P08908).
T3 construct: expressed in transfected cells
T3 sequence (P08908 1-422): T2 sequence (P08908 1-422)
In words: 35S-GTPγS binding assay, 5-HT1A function. The format is biochemical. As to conditions: for IC50: antagonist potency, reversal of 8-OH-DPAT, read-out: 5-HT1A Function GTPγS IC50; for EC50: agonist potency.

[5] abbreviates: maximum inhibitory effect, in brackets after IC50, read-out: 5-HT1A Function GTPγS (Imax).
Setting [6] is: maximum stimulatory effect, in brackets after EC50, read-out: 5-HT1A Function GTPγS (Emax).
Setting [7] is: maximum inhibitory effect, in brackets after IC50.

Read-outs that look alike come from different tables or passages of the source.

T1 sequence (P31652 whole entry): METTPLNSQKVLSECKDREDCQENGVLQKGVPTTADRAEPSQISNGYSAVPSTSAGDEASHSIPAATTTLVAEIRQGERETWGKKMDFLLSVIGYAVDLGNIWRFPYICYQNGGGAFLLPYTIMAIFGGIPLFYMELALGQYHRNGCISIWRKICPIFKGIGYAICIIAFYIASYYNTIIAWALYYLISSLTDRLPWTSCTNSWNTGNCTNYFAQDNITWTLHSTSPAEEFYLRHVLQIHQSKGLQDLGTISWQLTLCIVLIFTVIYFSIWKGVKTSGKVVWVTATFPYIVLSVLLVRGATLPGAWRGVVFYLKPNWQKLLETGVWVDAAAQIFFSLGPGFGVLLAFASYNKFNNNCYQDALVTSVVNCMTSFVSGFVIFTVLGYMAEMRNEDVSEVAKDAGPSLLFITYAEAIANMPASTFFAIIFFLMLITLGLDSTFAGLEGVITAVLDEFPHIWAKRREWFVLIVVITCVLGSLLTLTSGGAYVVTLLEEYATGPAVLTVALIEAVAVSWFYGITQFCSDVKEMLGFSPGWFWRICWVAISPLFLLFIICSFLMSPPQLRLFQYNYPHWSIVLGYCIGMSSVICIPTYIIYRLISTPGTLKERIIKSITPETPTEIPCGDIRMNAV

For `NC(=O)c1ccc(F)c2c1CC(N(CCCCn1ccc3c(F)cccc31)CC1CC1)CO2` (centres unmarked) [Compound 203, 3-{(Cyclopropylmethyl)[4-(4-fluoro-1H-indol-1-yl)butyl]amino}-8-fluorochromane-5-carboxamide], the Ki amounted to 161 nM in experiment [1] and 9.64 nM in experiment [3]. In experiment [2], the EC50 amounted to 216 nM. Moreover, the values for the Emax in experiment [2] and in experiment [4] (setting [5]) were 72% and 80%, respectively. Also, the concentration for half-maximal inhibition (IC50) in experiment [4] stood at 6060 nM.

Consider `COc1cccc2c1CC(N(CCCc1c[nH]c3ccc(F)cc13)C1CCCC1)CO2` (centres unmarked) [Compound 39, N-cyclopentyl-N-[3-(5-fluoro-1H-indol-3-yl)propyl]-N-(5-methoxy-3,4-dihydro-2H-chromen-3-yl)amine], for which the results for the Ki in experiment [1] and in experiment [3] were 69 nM and 36.2 nM, respectively. Further, the EC50 in experiment [2] amounted to 108 nM; in experiment [4], 5840 nM. Moreover, the Emax in experiment [2] came out at 70.5%; in experiment [4] (setting [6]) it was 100%.

Regarding `CCN(CCCc1c[nH]c2ccc(F)cc12)C1COc2c(F)ccc(C(N)=O)c2C1` (single isomer, unassigned; (+)) [Compound 3b, (+)-3-{ethyl[3-(5-fluoro-1H-indol-3-yl)propyl]amino}-8-fluoro-3,4-dihydro-2H-chromene-5-carboxamide], the figures for the Ki in experiment [1] and in experiment [3] were 4.5 nM and 15.5 nM, respectively. This compound also showed an EC50 in experiment [2] of 31.4 nM. In experiment [2], this compound yielded a 5-HT1A Function cAMP (Emax) of 90.5%. In experiment [4], the IC50 stood at 665 nM. For the same compound, the 5-HT1A Function GTPγS (Imax) in experiment [4] (setting [7]) was 35.8%.

Regarding `COc1cccc2c(CCCN(C3CCC3)C3COc4c(F)ccc(C(N)=O)c4C3)coc12` (centres unmarked) [Compound 164, 3-{cyclobutyl[3-(7-methoxy-1-benzofuran-3-yl)propyl]amino}-8-fluorochromane-5-carboxamide], the values for the Ki in experiment [1] and in experiment [3] were 428 nM and 11.9 nM, respectively. The values for the IC50 in experiment [2] and in experiment [4] were 116 nM and 446 nM, respectively. Moreover, the Emax in experiment [2] amounted to 0%; in experiment [4] (setting [5]), 100%.

With `NC(=O)c1cccc2c1CC(N(CCCc1c[nH]c3ccc(F)cc13)C1CCC1)CO2` (single isomer, unassigned; (-)) [Compound 134a, (−)-3-{cyclobutyl[3-(5-fluoro-1H-indol-3-yl)propyl]amino}chromane-5-carboxamide], the Ki in experiment [1] was 2.75 nM. Moreover, in experiment [2], the EC50 worked out at 3.87 nM and the 5-HT1A Function cAMP (Emax) worked out at 89%. The Ki in experiment [3] was determined as 0.66 nM. Besides, in experiment [4], it took 66 nM to reach a half-maximal effect (EC50) and the IC50 was found to be 191 nM. For the same compound, the Emax in experiment [4] (setting [5]) worked out at 60%. This compound also came in with a 5-HT1A Function GTPγS (Emax) in experiment [4] (maximum stimulatory effect, in brackets after EC50) of 30%.

With `COC(=O)c1ccc(F)c2c1CC(NCCCCc1c[nH]c3ccc(F)cc13)CO2` (centres unmarked) [Compound 57, Methyl 8-fluoro-3-{[4-(5-fluoro-1H-indol-3-yl)butyl]amino}chromane-5-carboxylate], the Ki in experiment [1] is 4.69 nM; in experiment [3], 14.1 nM. Moreover, the EC50 was 87.1 nM in experiment [2] and 247 nM in experiment [4]. For the same compound, the Emax was found to be 91.5% in experiment [2] and 89% in experiment [4] (setting [6]).

On to `COc1cccc2c(CCCN(CC3CC3)C3COc4c(F)ccc(C(N)=O)c4C3)coc12` (centres unmarked) [Compound 165, 3-{(cyclopropylmethyl)[3-(7-methoxy-1-benzofuran-3-yl)propyl]amino}-8-fluorochromane-5-carboxamide], for which the Ki in experiment [1] turned out to be 913 nM; in experiment [3] it was 1.06 nM. For the same compound, the IC50 stood at 52.3 nM in experiment [2] and 116 nM in experiment [4]. Further, the Emax in experiment [2] came out at 0%; in experiment [4] (setting [5]), 91%; in experiment [4] (setting [6]), 22%. In addition, in experiment [4], the EC50 stood at 211 nM.

`CCN(CCCCc1c[nH]c2ccc(F)cc12)C1COc2cccc(OC)c2C1` (centres unmarked) [Compound 32, N-ethyl-N-[4-(5-fluoro-1H-indol-3-yl)butyl]-5-methoxychroman-3-amine]: the Ki in experiment [1] was determined as 1.1 nM; in experiment [3], 2.78 nM. Further, the EC50 turned out to be 85.4 nM in experiment [2] and 123 nM in experiment [4]. In addition, the Emax in experiment [2] was 95%; in experiment [4] (setting [6]), 100%.

As to `NC(=O)c1ccc(F)c2c1CC(N(CC1CCc3[nH]c4ccc(F)cc4c3C1)C1CCC1)CO2` (single isomer, unassigned; (+)) [Compound 174b, (+)-3-{cyclobutyl[(6-fluoro-2,3,4,9-tetrahydro-1H-carbazol-3-yl)methyl]amino}-8-fluorochromane-5-carboxamide], the values for the Ki in experiment [1] and in experiment [3] were 192 nM and 0.85 nM, respectively. In addition, the IC50 in experiment [2] was 64.1 nM; in experiment [4], 1440 nM. In addition, the Emax in experiment [2] was 0%. In experiment [4] (setting [7]), this compound showed a 5-HT1A Function GTPγS (Imax) of 67%.

Consider `NC(=O)c1ccc(F)c2c1CC(N(CCCc1c[nH]c3cc(F)ccc13)CC1CC1)CO2` (centres unmarked) [Compound 52a, 3-{(cyclopropylmethyl)[3-(6-fluoro-1H-indol-3-yl)propyl]amino}-8-fluorochromane-5-carboxamide], for which the Ki is 163 nM in experiment [1] and 2.37 nM in experiment [3]. Also, the IC50 was determined as 118 nM in experiment [2] and 983 nM in experiment [4]. In addition, the values for the Emax in experiment [2] and in experiment [4] (setting [5]) were 0% and 90%, respectively.

In the case of `CNC(=O)c1ccc(F)c2c1C[C@H](N(CCCCc1c[nH]c3ccc(F)cc13)C1CCC1)CO2` [Compound 145a, (3S)-3-{cyclobutyl[4-(5-fluoro-1H-indol-3-yl)butyl]amino}-8-fluoro-N-methylchromane-5-carboxamide], the Ki was found to be 16.1 nM in experiment [1] and 288 nM in experiment [3]. For the same compound, the IC50 in experiment [2] was 668 nM; in experiment [4] it was 5470 nM. Further, the Emax was 0% in experiment [2] and 100% in experiment [4] (setting [5]).

In the case of `NC(=O)c1ccc(F)c2c1C[C@@H](NCC1CCc3[nH]c4ccc(F)cc4c3C1)CO2` (single isomer, unassigned; (-)) [Compound 175a], the Ki in experiment [1] stood at 20.9 nM; in experiment [3], 38 nM. Also, the figures for the IC50 in experiment [2] and in experiment [4] were 1480 nM and 429 nM, respectively. Besides, the Emax in experiment [2] stood at 0%. This compound yielded a 5-HT1A Function GTPγS (Imax) in experiment [4] (setting [7]) of 100%.

With `CCN(CCCc1c[nH]c2ccc(Cl)cc12)C1COc2c(F)ccc(C(N)=O)c2C1` (centres unmarked) [Compound 115, 3-[[3-(5-chloro-1H-indol-3-yl)propyl](ethyl)amino]-8-fluorochromane-5-carboxamide], the Ki in experiment [1] stood at 21.4 nM; in experiment [3], 6.04 nM. The values for the EC50 in experiment [2] and in experiment [4] were 46 nM and 52.2 nM, respectively. Moreover, the Emax in experiment [2] was 77%; in experiment [4] (setting [5]), 72%; in experiment [4] (setting [6]) it was 38%. Also, the IC50 in experiment [4] turned out to be 1990 nM.

For the compound `NC(=O)c1ccc(F)c2c1CC(N(CCCc1c[nH]c3c(Cl)cccc13)CC1CC1)CO2` (centres unmarked) [Compound 112, 3-[[3-(7-chloro-1H-indol-3-yl)propyl](cyclopropylmethyl)amino]-8-fluorochromane-5-carboxamide], the results for the Ki in experiment [1] and in experiment [3] were 61 nM and 0.74 nM, respectively. Further, the half-maximal inhibitory concentration (IC50) in experiment [2] came out at 56.8 nM; in experiment [4], 241 nM. The figures for the Emax in experiment [2] and in experiment [4] (setting [5]) were 0% and 100%, respectively.

`NC(=O)c1ccc(F)c2c1CC(N(CC1CCc3[nH]c4ccc(F)cc4c3C1)C1CCC1)CO2` (single isomer, unassigned; (+)) [Compound 174c, (+)-3-{cyclobutyl[(6-fluoro-2,3,4,9-tetrahydro-1H-carbazol-3-yl)methyl]amino}-8-fluorochromane-5-carboxamide]: the Ki in experiment [1] is 1100 nM; in experiment [3], 185 nM. Also, the IC50 in experiment [2] came to 607 nM. Also, in experiment [2], the 5-HT1A Function cAMP (Emax) amounted to 0%. Besides, in experiment [4], it took 978 nM to reach a half-maximal effect (EC50). In addition, the Emax in experiment [4] (setting [6]) turned out to be 55%.

Turning to `CCCN(CCCCc1c[nH]c2ccc(F)cc12)C1COc2cccc(OC)c2C1` (centres unmarked) [Compound 30, N-[4-(5-fluoro-1H-indol-3-yl)butyl]-5-methoxy-N-propylchroman-3-amine], the Ki in experiment [1] came out at 12.6 nM; in experiment [3] it was 3.62 nM. Moreover, the EC50 worked out at 27.7 nM in experiment [2] and 94.6 nM in experiment [4]. Moreover, the Emax was 94% in experiment [2] and 83% in experiment [4] (setting [6]).

`CCN(CCCc1c[nH]c2c(Cl)cccc12)C1COc2c(F)ccc(C(N)=O)c2C1` (centres unmarked) [Compound 110, 3-[[3-(7-chloro-1H-indol-3-yl)propyl](ethyl)amino]-8-fluorochromane-5-carboxamide]: the Ki in experiment [1] was 4.59 nM; in experiment [3] it was 6.45 nM. Also, the EC50 in experiment [2] stood at 36.4 nM; in experiment [4] it was 244 nM. In addition, the Emax in experiment [2] stood at 75%; in experiment [4] (setting [5]), 59%; in experiment [4] (setting [6]), 61%. Besides, the IC50 in experiment [4] worked out at 196 nM.
